Experiments:
GP2D cells = experiment: Ras cellular assay, growth of cells with K-Ras G12D mutation (CellTiter-Glo); format: cell-based; settings: cell growth, Example 9, G12D mutation, read-out: IC50 against GP2D cells
K-Ras G12V = biological target: T1, K-Ras G12V (Homo sapiens, UniProt P01116, G12V); experiment: HTRF resonance energy transfer assay, K-Ras G12V / SOS1 interaction; format: biochemical; settings: HTRF assay of Example 5; read-out: IC50 against K-Ras G12V
T1 construct: made in house; host or cells: E. coli BL21 (DE3)
T1 sequence (P01116 1-188 isoform P01116-2 G12V): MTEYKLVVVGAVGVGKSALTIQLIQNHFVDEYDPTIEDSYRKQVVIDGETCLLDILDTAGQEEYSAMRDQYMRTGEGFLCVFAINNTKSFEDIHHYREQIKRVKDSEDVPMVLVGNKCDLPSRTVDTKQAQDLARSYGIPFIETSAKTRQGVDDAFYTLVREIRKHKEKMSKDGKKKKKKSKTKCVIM
In short: (§1)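 Read-out: HTRF 665/620 nm ratio (excitation 337 nm) after roughly 10 min or longer incubation, used to derive IC50. Donor anti-GST-Eu on GST-K-Ras; acceptor anti-6His-XL665 on His-hSOS1. Duplicate dose series from 10 μM down to 0.01 μM.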

SW620 cells = experiment: Ras cellular assay, growth of cells with K-Ras G12V mutation (CellTiter-Glo); format: cell-based; settings: Homo sapiens, SW-620; cell growth, Example 9, G12V mutation; read-out: IC50 against SW620 cells
In short: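 SW620 (K-Ras G12V) cells, e.g. 800/well in RPMI-1640 with 10% heat-inactivated FBS on standard or ultra-low attachment plates, were dosed the day after plating with e.g. a 10-point 3-fold series. Viability by CellTiter-Glo luminescence about 6 days later; IC50 from four-parameter fit.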

K-Ras WT = biological target: T2, K-Ras WT (Homo sapiens, UniProt P01116); experiment: HTRF resonance energy transfer assay, K-Ras WT / SOS1 interaction; format: biochemical; settings: HTRF assay of Example 5; read-out: IC50 against K-Ras WT
T2 construct: made in house; host or cells: E. coli BL21 (DE3)
T2 sequence (P01116 1-188 isoform P01116-2): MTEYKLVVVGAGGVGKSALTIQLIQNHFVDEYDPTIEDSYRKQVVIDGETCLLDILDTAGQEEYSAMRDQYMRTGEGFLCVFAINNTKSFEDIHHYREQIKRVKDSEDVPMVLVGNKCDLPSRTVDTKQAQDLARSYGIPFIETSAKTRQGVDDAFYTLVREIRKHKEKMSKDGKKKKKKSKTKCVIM
In short: as §1

K-Ras G12D = biological target: T3, K-Ras G12D (Homo sapiens, UniProt P01116, G12D); experiment: HTRF resonance energy transfer assay, K-Ras G12D / SOS1 interaction; format: biochemical; settings: HTRF assay of Example 5; read-out: IC50 against K-Ras G12D
T3 construct: made in house; host or cells: E. coli BL21 (DE3)
T3 sequence (P01116 1-188 isoform P01116-2 G12D): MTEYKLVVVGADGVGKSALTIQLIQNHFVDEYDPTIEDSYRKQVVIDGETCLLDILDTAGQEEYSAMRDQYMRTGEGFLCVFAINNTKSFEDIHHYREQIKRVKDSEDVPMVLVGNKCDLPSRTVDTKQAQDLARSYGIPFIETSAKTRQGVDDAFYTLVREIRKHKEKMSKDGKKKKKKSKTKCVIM
In short: as §1

K-Ras G12S = biological target: T4, K-Ras G12S (Homo sapiens, UniProt P01116, G12S); experiment: HTRF resonance energy transfer assay, K-Ras G12S / SOS1 interaction; format: biochemical; settings: HTRF assay of Example 5; read-out: IC50 against K-Ras G12S
T4 construct: made in house; host or cells: E. coli BL21 (DE3)
T4 sequence (P01116 1-188 isoform P01116-2 G12S): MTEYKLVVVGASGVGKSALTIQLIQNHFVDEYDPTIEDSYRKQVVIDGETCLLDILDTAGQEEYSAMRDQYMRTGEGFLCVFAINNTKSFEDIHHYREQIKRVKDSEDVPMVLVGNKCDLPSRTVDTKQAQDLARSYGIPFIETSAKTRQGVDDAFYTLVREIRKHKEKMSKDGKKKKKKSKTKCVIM
In short: as §1

Compound	IC50 (K-Ras G12V) [nM]	IC50 (SW620 cells) [nM]	IC50 (K-Ras WT) [nM]	IC50 (K-Ras G12D) [nM]	IC50 (K-Ras G12S) [nM]	IC50 (GP2D cells) [nM]
N#Cc1c(N)sc2c(F)ccc(-c3c(Cl)c4c5c(nc(OC[C@@]67CCCN6C[C@H](F)C7)nc5c3F)N(CC(F)F)[C@@H](C(O)C(F)(F)F)CO4)c12 (stereo partly drawn) [Compound 919, 2-amino-4-((5R)-8-chloro-4-(2,2-difluoroethyl)-10-fluoro-2-(((2R,7aS)-2-fluorotetrahydro-1H-pyrrolizin-7a(5H)-yl)methoxy)-5-(2,2,2-trifluoro-1-hydroxyethyl)-5,6-dihydro-4H-[1,4]oxazepino[5,6,7-de]quinazolin-9-yl)-7-fluorobenzo[b]thiophene-3-carbonitrile]	< 100	< 5000	< 100	< 100	< 100	< 500
N#Cc1c(N)sc2c(F)ccc(-c3c(Cl)c4c5c(nc(OC[C@@]67CCCN6C[C@H](F)C7)nc5c3F)N(CC(F)F)C(C3(F)CC3)CO4)c12 (stereo partly drawn) [Compound 943, 2-amino-4-(8-chloro-4-(2,2-difluoroethyl)-10-fluoro-5-(1-fluorocyclopropyl)-2-(((2R,7aS)-2-fluorotetrahydro-1H-pyrrolizin-7a(5H)-yl)methoxy)-5,6-dihydro-4H-[1,4]oxazepino[5,6,7-de]quinazolin-9-yl)-7-fluorobenzo[b]thiophene-3-carbonitrile]	< 100	< 5000	< 100	< 100	< 100	< 500
N#Cc1c(N)sc2c(F)ccc(-c3c(Cl)c4c5c(nc(OC[C@@]67CCCN6C[C@H](F)C7)nc5c3F)N(C3CCOC3)[C@@H](C3(O)CC3)CO4)c12 (stereo partly drawn) [Compound 1031, 2-amino-4-((5R)-8-chloro-10-fluoro-2-(((2R,7aS)-2-fluorotetrahydro-1H-pyrrolizin-7a(5H)-yl)methoxy)-5-(1-hydroxycyclopropyl)-4-(tetrahydrofuran-3-yl)-5,6-dihydro-4H-[1,4]oxazepino[5,6,7-de]quinazolin-9-yl)-7-fluorobenzo[b]thiophene-3-carbonitrile]	< 100	< 5000	< 100	< 100	< 100	< 500
C#C[C@H]1COc2c(Cl)c(-c3ccc(F)c4sc(N)c(C#N)c34)c(F)c3nc(OC[C@@]45CCCN4C[C@H](F)C5)nc(c23)N1CC(F)F [Compound 730, 2-amino-4-((5S)-8-chloro-4-(2,2-difluoroethyl)-5-ethynyl-10-fluoro-2-(((2R,7aS)-2-fluorotetrahydro-1H-pyrrolizin-7a(5H)-yl)methoxy)-5,6-dihydro-4H-[1,4]oxazepino[5,6,7-de]quinazolin-9-yl)-7-fluorobenzo[b]thiophene-3-carbonitrile]		< 5000				< 500
C=C[C@H]1COc2c(Cl)c(-c3ccc(F)c4sc(N)c(C#N)c34)c(F)c3nc(OC[C@@]45CCCN4C[C@H](F)C5)nc(c23)N1CCC(F)F (single isomer, unassigned) [Compound 727]		< 5000				< 500
C[C@H]1COc2c(Cl)c(-c3ccc(F)c4sc(N)c(C#N)c34)c(F)c3nc(OC[C@@]45CCCN4C[C@H](F)C5)nc(c23)N1CC(F)F [Compound 1088, 2-amino-4-((5S)-8-chloro-4-(2,2-difluoroethyl)-10-fluoro-2-(((2R,7aS)-2-fluorotetrahydro-1H-pyrrolizin-7a(5H)-yl)methoxy)-5-methyl-5,6-dihydro-4H-[1,4]oxazepino[5,6,7-de]quinazolin-9-yl)-7-fluorobenzo[b]thiophene-3-carbonitrile]	< 100	< 5000	< 100		< 100	< 500
C=C(C)[C@H]1COc2c(Cl)c(-c3ccc(F)c4sc(N)c(C#N)c34)c(F)c3nc(OC[C@@]45CCCN4C[C@H](F)C5)nc(c23)N1CC(F)F [Compound 879, 2-amino-4-((5S)-8-chloro-4-(2,2-difluoroethyl)-10-fluoro-2-(((2R,7aS)-2-fluorotetrahydro-1H-pyrrolizin-7a(5H)-yl)methoxy)-5-(prop-1-en-2-yl)-5,6-dihydro-4H-[1,4]oxazepino[5,6,7-de]quinazolin-9-yl)-7-fluorobenzo[b]thiophene-3-carbonitrile]	< 100		< 100	< 100	< 100	< 500
CNCCN1CCOc2c(Cl)c(-c3ccc(F)c4sc(N)c(C#N)c34)c(F)c3nc(OC[C@@]45CCCN4C[C@H](F)C5)nc1c23 [Compound 961, 2-amino-4-(8-chloro-10-fluoro-2-(((2R,7aS)-2-fluorotetrahydro-1H-pyrrolizin-7a(5H)-yl)methoxy)-4-(2-(methylamino)ethyl)-5,6-dihydro-4H-[1,4]oxazepino[5,6,7-de]quinazolin-9-yl)-7-fluorobenzo[b]thiophene-3-carbonitrile]	< 100		< 100	< 100	< 100	< 500
N#Cc1c(N)sc2c(F)ccc(-c3c(Cl)c4c5c(nc(OC[C@@]67CCCN6C[C@H](F)C7)nc5c3F)N(CC(F)F)[C@@H](C3CC3C#N)CO4)c12 (stereo partly drawn) [Compound 1109, 2-amino-4-((5S)-8-chloro-5-(2-cyanocyclopropyl)-4-(2,2-difluoroethyl)-10-fluoro-2-(((2R,7aS)-2-fluorotetrahydro-1H-pyrrolizin-7a(5H)-yl)methoxy)-5,6-dihydro-4H-[1,4]oxazepino[5,6,7-de]quinazolin-9-yl)-7-fluorobenzo[b]thiophene-3-carbonitrile]		< 5000				< 500

Now from value to molecule, other results behind:

IC50 (K-Ras G12V) [nM]	IC50 (SW620 cells) [nM]	IC50 (K-Ras WT) [nM]	IC50 (K-Ras G12D) [nM]	IC50 (K-Ras G12S) [nM]	Compound	IC50 (GP2D cells) [nM]
< 100	< 5000	< 100	< 100	< 100	C=C[C@H]1COc2c(Cl)c(-c3ccc(F)c4sc(N)c(C#N)c34)c(F)c3nc(OC[C@@]45CCCN4C[C@H](F)C5)nc(c23)N1C1CCOC1 (single isomer, unassigned) [Compound 980]	< 500
< 100	< 5000	< 100	< 100	< 100	CN(C)CCN1c2nc(OC[C@@]34CCCN3C[C@H](F)C4)nc3c(F)c(-c4ccc(F)c5sc(N)c(C#N)c45)c(Cl)c(c23)OCC1CC#N (stereo partly drawn) [Compound 885, 2-amino-4-(8-chloro-5-(cyanomethyl)-4-(2-(dimethylamino)ethyl)-10-fluoro-2-(((2R,7aS)-2-fluorotetrahydro-1H-pyrrolizin-7a(5H)-yl)methoxy)-5,6-dihydro-4H-[1,4]oxazepino[5,6,7-de]quinazolin-9-yl)-7-fluorobenzo[b]thiophene-3-carbonitrile]	< 500
< 100	< 5000	< 100	< 100	< 100	CC(C)(O)C1COc2c(Cl)c(-c3ccc(F)c4sc(N)c(C#N)c34)c(F)c3nc(OC[C@@]45CCCN4C[C@H](F)C5)nc(c23)N1CCC(F)F (stereo partly drawn) [Compound 1050, 2-amino-4-(8-chloro-4-(3,3-difluoropropyl)-10-fluoro-2-(((2R,7aS)-2-fluorotetrahydro-1H-pyrrolizin-7a(5H)-yl)methoxy)-5-(2-hydroxypropan-2-yl)-5,6-dihydro-4H-[1,4]oxazepino[5,6,7-de]quinazolin-9-yl)-7-fluorobenzo[b]thiophene-3-carbonitrile]	< 500
< 100	< 5000	< 100	< 100	< 100	N#Cc1c(N)sc2c(F)ccc(-c3c(Cl)c4c5c(nc(OC[C@@]67CCCN6C[C@H](F)C7)nc5c3F)N([C@H]3CNC[C@H]3F)CCO4)c12 [Compound 1070, 2-amino-4-(8-chloro-10-fluoro-4-((3S,4R)-4-fluoropyrrolidin-3-yl)-2-(((2R,7aS)-2-fluorotetrahydro-1H-pyrrolizin-7a(5H)-yl)methoxy)-5,6-dihydro-4H-[1,4]oxazepino[5,6,7-de]quinazolin-9-yl)-7-fluorobenzo[b]thiophene-3-carbonitrile]	< 500
< 100	< 5000	< 100	< 100	< 100	CC(C)(O)[C@H]1COc2c(Cl)c(-c3ccc(F)c4sc(N)c(C#N)c34)c(F)c3nc(OC[C@@]45CCCN4C[C@H](F)C5)nc(c23)N1C1CCOC1 (stereo partly drawn) [Compound 1041, 2-amino-4-((5R)-8-chloro-10-fluoro-2-(((2R,7aS)-2-fluorotetrahydro-1H-pyrrolizin-7a(5H)-yl)methoxy)-5-(2-hydroxypropan-2-yl)-4-(tetrahydrofuran-3-yl)-5,6-dihydro-4H-[1,4]oxazepino[5,6,7-de]quinazolin-9-yl)-7-fluorobenzo[b]thiophene-3-carbonitrile]	< 500

From patent US12209102B2, “Heterocyclic compounds and uses thereof” (Kumquat Biosciences Inc., priority 2022, dated 2025)
